Measurements: US20240251802A1, “USE OF SATIVENE, AND RECOMBINANT BIOCONTROL FUNGUS AND MUSCARDINE CADAVER AND USE THEREOF” (priority 2022, published 2024)
Entries after “also recorded” stand apart in the source; their conditions may differ.

Tests used:
Assay type in all cases: in vivo
Aedes albopictus adults = experiment: Two-way choice method, attraction of adult mosquitoes; conditions: for content with the strongest attraction on mosquitoes: content gradients 10^−5 g to 10^−9 g on cotton balls vs n-hexane control, FIG. 2C/2D
Protocol: The detection on attraction of muscardine cadavers to mosquito (Aedes albopictus) adults was conducted according to a relevant literature (Robinson Ailic, Busula Annette O, Voets Mirjam A, Beshir Khalid B, Caulfield John C. Powers Stephen J, Verhulst Niels O, Winskill Peter, Muwanguzi Julian, Birkett Michael A, Smallegange Renate C, Masiga Daniel K, Mukabana W Richard, Sauerwein Robert W, Sutherland Colin J, Bousema Teun, Pickett John A, Takken Willem, Logan James G, de Boer Jetske G. Plasmodium-associated changes in human odor attract mosquitoes. Proc Natl Acad Sci USA 2018; 115: 4215), and the device used was shown in FIG. 1D. One of freeze-killed Galleria mellonella larvae (control) and one of the resulting Galleria mellonella muscardine cadaver were placed in a 3.5 cm ampoule, and placed in cylinders on both sides of the device. 10 female mosquitoes without blood meal 3 d to 5 d after eclosion were placed in the middle of a tube 1. Openings at both ends of the tube 1 were covered with gauze, and the tube was placed in a refrigerator at 4° C. for 3 min to reduce mosquito activities. Then the tube 1 was connected to tubes 2 and 3. The whole device was placed in a dark incubator at 26° C., and the selection of mosquitoes was recorded after 10 h. A Response index was calculated [the Response index=the number of mosquitoes selecting Galleria mellonella muscardine cadavers−the number of mosquitoes selecting freeze-killed Galleria mellonella larvae)/the total number of mosquitoes].
The muscardine cadaver was replaced by circular filter paper with a 5 mm diameter (containing 10 μl of different concentrations solutions of longifolene or sativene), and a control was a filter paper containing 10 μl of n-hexane solvent. Similarly, the method for detecting the attraction of muscardine cadavers to Galleria mellonella larvae and mosquitoes adults was also used to analyze the attraction of longifolene and sativene to these two kinds of insects. In the Galleria mellonella attractive device, the muscardine cadaver was replaced by cotton balls with about 2 cm diameter (containing 100 μl different concentrations solutions of longifolene or sativene), and a control was cotton balls containing 100 μl of n-hexane solvent. […]
(§1) According to the above device, the attraction of transgenic strain Mr-Tps and WT strain grown on PDA and on fermentation medium to mosquitoes was compared. The mycelia of transgenic strain Mr-Tps and WT strain grown on PDA and on fermentation medium for 14 d and with a fresh weight of 0.3 g were placed on both sides of the device, respectively, and a preference percentage was calculated after a period of treatment, where the preference percentage=the number of insects selecting mycelia of transgenic strain and WT strain/the total number of insects.

Drosophila larvae = experiment: Two-way choice method, attraction of Drosophila larvae; conditions: FIG. 2A/2B; for concentration dependence of attraction on Drosophila larvae: content gradients 10^−5 g to 10^−11 g
Protocol: Two-way choice method was used to detect the attraction of Galleria mellonella muscardine cadavers to Drosophila healthy larvae, with the device shown in FIG. 1A. New freezing-killed Galleria mellonella larvae were kept at a room temperature for 20 min(control) and one of the resulting Galleria mellonella muscardine cadaver was placed on both sides of a 9 cm petri dish (containing 2% water agar), and then 20 healthy 3-instar Canton-S Drosophila larvae were placed in the middle part of the petri dish. After 10 min, photographing was conducted to record the selection of Drosophila larvae, and a Response index was calculated [the Response index=(the number of Drosophila larvae selecting Galleria mellonella muscardine cadaver−the number of Drosophila larvae selecting control Galleria mellonella larvae)/the total number of Drosophila larvae (20)]. The experiment was repeated 6 times.
(§2) The muscardine cadaver was replaced by circular filter paper with a 5 mm diameter (containing 10 μl of different concentrations solutions of longifolene or sativene), and a control was a filter paper containing 10 μl of n-hexane solvent. Similarly, the method for detecting the attraction of muscardine cadavers to Galleria mellonella larvae and mosquitoes adults was also used to analyze the attraction of longifolene and sativene to these two kinds of insects. […]
as §1

[1] = system: Galleria mellonella larvae; experiment: Improved Two-way choice method, attraction of Galleria mellonella larvae; conditions: cotton balls with 100 μl solution vs n-hexane control, FIG. 3
Source text: An improved Two-way choice method was used to detect the attraction of Galleria mellonella muscardine cadavers to Galleria mellonella healthy larvae, with the device shown in FIG. 1B. Three freeze-killed Galleria mellonella larvae (control) and three the resulting Galleria mellonella muscardine cadavers were placed in 9 cm petri dishes, and the petri dishes were placed diagonally in the device; 40 healthy Galleria mellonella larvae were released at the center point of the device, and placed at room temperature in dark. The selection of healthy Galleria mellonella larvae was recorded after 1 h. A Response index was calculated [the Response index=the number of Galleria mellonella larvae selecting Galleria mellonella muscardine cadavers−the number of Galleria mellonella larvae selecting freeze-killed Galleria mellonella larvae)/the total number of Galleria mellonella larvae]. The experiment was repeated 6 times.
as §2

Q: For C=C1[C@H]2CC[C@@H]3[C@H]2C(C)(C)CCC[C@]13C [longifolene], which “response of mosquitoes at 10^−9 g” value (Aedes albopictus adults; 10^−9 g, FIG. 2C) is on record?
A: The value was “little response”.

Q: What about the “content with the strongest attraction on mosquitoes” value (Aedes albopictus adults) of the same molecule?
A: Its value is 10^−6 g.

Q: And the “concentration dependence of attraction on Drosophila larvae” value (Drosophila larvae)?
A: Its value is “a higher concentration of the longifolene and sativene had a stronger attraction”.

Q: What about the “attraction of Galleria mellonella larvae” value [1] of the same molecule?
A: Its value is “could also attract”.

Q: C=C1C2CCC3C2C(C(C)C)CCC13C (stereo not drawn) [sativene] was tested. Which “content with the strongest attraction on mosquitoes” value (Aedes albopictus adults) did it give?
A: Its value is 10^−5 g.

Q: And the “concentration dependence of attraction on mosquitoes” value (Aedes albopictus adults; content gradients 10^−5 g to 10^−9 g, FIG. 2D)?
A: Its value is “a higher concentration of the sativene has a stronger attracting effect; also recorded: a higher concentration of the sativene had a stronger attraction”.

Q: And the “lowest level to which Drosophila larvae respond” value (Drosophila larvae; content gradients 10^−5 g to 10^−11 g on filter paper vs n-hexane control)?
A: Its value is ≤ 10^−11 g.

Q: And the “concentration dependence of attraction on Drosophila larvae” value (Drosophila larvae)?
A: Its value is “a higher concentration of the sativene has a stronger attracting effect; also recorded: a higher concentration of the longifolene and sativene had a stronger attraction”.

Q: What about the “attraction of Galleria mellonella larvae” value [1] of the same molecule?
A: The value was “has insect attracting properties; also recorded: could also attract”.
